Assay [1] deals with intracellular Salmonella in RAW264.7 cells. Put plainly: Intracellular Salmonella viability with autophagy inhibitor 3-MA (HCA). The format is cell-based, S. typhimurium. As to conditions: 10 mM 3-MA. On the procedure:
FIG. 7. Infected RAW264.7 cells treated with 10 mM of 3-MA for 1 h followed by 0.5 μM of SW14 or mock (DMSO) treatment for 24 hours.
Autophagy was originally characterized as a cellular response to stress, but has been considered to be a defense mechanism to combat host cell infection by intracellular Salmonella. Therefore, to evaluated the role of autophagy in SW14's anti-intracellular Salmonella activity, infected cells are treated with 3-MA, an autophagy inhibitor to block cellular autophagy then followed by treatment with SW14 for 24 h. […] Compared to mock-treated cells, the viability of intracellular Salmonella in cells treated with SW14 or the combination of 3-MA and SW14 were 45% and 36.8%, respectively.

Assay [2] concerns Salmonella Typhimurium 0911R. Put plainly: MIC of antibiotics, multidrug-resistant isolate 0911R. As to conditions: Table 5; for MIC: Salmonella enterica, TYPHIMURIUM
The format is cell-based.

The subject of assay [3] is Salmonella Typhimurium NL08.10. Put plainly: MIC of antibiotics, multidrug-resistant isolate NL08.10. It is filed as cell-based. As to conditions: Table 5; for MIC: Salmonella enterica, TYPHIMURIUM
Assay [4] deals with Salmonella Typhimurium ATCC 14028. Put plainly: MIC of antibiotics, strain ATCC 14028. The format is cell-based. As to conditions: for MIC: Salmonella enterica.
Assay [5] concerns intracellular Salmonella in RAW264.7 cells. The assay is described as follows: Intracellular Salmonella with cefixime or ciprofloxacin alone or combined with SW14 (HCA). It is filed as cell-based. As to conditions: 24 hours, alone or combined with 0.5 μM SW14. On the procedure: FIG. 4. Salmonella-infected RAW264.7 cells treated with (A) 0.25, 0.5, 1, 2, and 4 mg/L of cefixime (CFM) and (B) 0.03, 0.06, 0.125, 0.25, and 0.5 mg/L of ciprofloxacin (CIP) alone or in combination with 0.5 μM SW14. After 24 hours, the relative numbers of intracellular bacteria were determined using HCA and the results are expressed as relative fluorescence units (RFU).

Assay [6] has as its system Salmonella Typhimurium SA10. Put plainly: MIC of antibiotics, ciprofloxacin-resistant strain SA10. The format is cell-based. As to conditions: Table 6; for MIC: Salmonella enterica, TYPHIMURIUM
For assay [7], the system named is Salmonella Typhimurium SB10. The assay is described as follows: MIC of antibiotics, ciprofloxacin-resistant strain SB10. It is filed as cell-based. As to conditions: Table 6; for MIC: Salmonella enterica, TYPHIMURIUM
The subject of assay [8] is ROS levels in infected macrophages. The assay is described as follows: ROS production in Salmonella-infected RAW264.7 cells (H2DCFDA). As to conditions: 1 hour; SW14 at concentrations up to 8 μM. It is filed as cell-based. On the procedure:
FIG. 10. […] The viabilities of intracellular Salmonella in RAW264.7 cells treated with SW14 with/without the ROS scavengers N-acetyl-cysteine (NAC; 10 mM) or glutathione (GSH; 10 mM) are assessed using HCA. […] Salmonella-infected RAW264.7 cells are loaded with 25 μM H2DCFDA for 45 min followed by treatment with SW14 or PMA at various concentrations. […] S. Typhimurium ATCC 14028 is treated with H2O2 alone or in combination with SW14 (0.5 μM) in (C) LB or (D) LPM for 1 hour followed by evaluation by the CFU assay to determine bacterial viability.

Assay [9] has as its system S. Typhimurium 14028. The assay is described as follows: Anti-intracellular Salmonella activity in infected RAW264.7 cells (HCA). It is filed as cell-based, Salmonella Typhimurium. As to conditions: for Selectivity ratio (IC50/EC50): IC50 RAW264.7 / EC50 S. Typhimurium 14028; for EC50: Salmonella enterica, TYPHIMURIUM, RAW264.7, read-out: EC50 (μM) S. Typhimurium 14028, intracellular Salmonella in infected RAW264.7 cells.

For assay [10], the system named is RAW264.7. The assay is described as follows: Cytotoxicity in RAW264.7 cells (HCA, MTT cell viability assay). It is filed as cell-based. As to conditions: Mus musculus, RAW264.7, read-out: IC50 (μM) RAW264.7.
Procedure: The cell viability was evaluated using HCA and an MTT cell viability assay, and the data are expressed as a percentage relative to the untreated control and are presented as the mean±SD (n=3 per group).
Where [11] appears, read: CAMH medium, read-out: MIC S. Typhimurium ATCC 14028, CAMH.
Where [12] appears, read: LB medium, read-out: MIC S. Typhimurium ATCC 14028, LB.
Setting [13] is: Table 5, read-out: MIC ATCC 14028.
Setting [14] is: acidic LPM medium, read-out: MIC S. Typhimurium ATCC 14028, LPM.
[15] abbreviates: Table 6, read-out: MIC ATCC 14028.

A word on the MIC: it is the lowest concentration that inhibits growth of the organism. In general, EC50 refers to the concentration at which the effect is half-maximal. As a reminder, the IC50 is the concentration that gives 50% inhibition.

Like-named read-outs stand apart in the source and are kept apart here.

In the case of `Cn1cnc(=N)c2[nH]cnc21` [3-MA, reference compound], the “relative number of intracellular bacteria in 3-MA-treated cells” value in [1] was “increased significantly”.
For `CC1(C)S[C@@H]2[C@H](NC(=O)[C@H](N)c3ccccc3)C(=O)N2[C@H]1C(=O)O` [Ampicillin], the minimal inhibitory concentration (MIC) in [2] is more than 64 µg/mL; in assay [3] it was more than 64 µg/mL; in assay [4] (setting [11]), 4 µg/mL; in assay [4] (setting [12]), 4 µg/mL; in assay [4] (setting [13]), 16 µg/mL; in assay [4] (setting [14]) it was 1 µg/mL.
For `O=C(N[C@H](CO)[C@H](O)c1ccc([N+](=O)[O-])cc1)C(Cl)Cl` [Chloramphenicol], the MIC in assay [2] came out at 32 µg/mL; in assay [3], 32 µg/mL; in assay [4] (setting [13]) it was 16 µg/mL.
For the molecule `O=C(O)c1cn(C2CC2)c2cc(N3CCNCC3)c(F)cc2c1=O` [Ciprofloxacin, ciprofloxacin], the “survival of intracellular Salmonella in macrophages, antibiotic treatment” value in assay [5] is recorded as “inhibited the survival of intracellular Salmonella in macrophages in a dose-dependent manner”. The minimum inhibitory concentration (MIC) in assay [6] was 4 µg/mL; in [4] (setting [15]) it was less than 0.125 µg/mL; in assay [7] it was 4 µg/mL.
As for `CC1COc2c(N3CCN(C)CC3)c(F)cc3c(=O)c(C(=O)O)cn1c23` (stereo not drawn) [Ofloxacin], the MIC in assay [6] was 8 µg/mL; in assay [4] (setting [15]), less than 0.125 µg/mL; in [7] it was 8 µg/mL.
Turning to `CCCCCCCCCCCCCC(=O)O[C@@H]1[C@@H](C)[C@@]2(O)[C@@H](C=C(CO)C[C@]3(O)C(=O)C(C)=C[C@@H]23)[C@@H]2C(C)(C)[C@]12OC(C)=O` [PMA, reference compound], the “ROS levels (H2DCFDA signal) in infected macrophages” value in assay [8] was “significantly elevated ROS levels”.
With `CO[C@H]1/C=C/O[C@@]2(C)Oc3c(C)c(O)c4c(O)c(c(/C=N/N5CCN(C)CC5)c(O)c4c3C2=O)NC(=O)/C(C)=C\C=C\[C@H](C)[C@H](O)[C@@H](C)[C@@H](O)[C@@H](C)[C@H](OC(C)=O)[C@@H]1C` [Rifampin], the minimum inhibitory concentration (MIC) in assay [4] (setting [11]) was determined as 16 µg/mL; in [4] (setting [12]), 16 µg/mL; in [4] (setting [14]) it was 4 µg/mL.
Turning to `Cc1cc2c(s1)Nc1ccccc1N=C2NCCN(C)C` [SW39, N1,N1-dimethyl-N2-(2-methyl-10H-benzo[b]thieno[2,3-e][1,4]diazepin-4-yl)ethane-1,2-diamine], in assay [9], the “Selectivity ratio (IC50/EC50)” value stood at 72.5 and the concentration for a half-maximal effect (EC50) came to 1.7 µM. Besides, the IC50 in assay [10] was 122 µM.
Turning to `Cc1cc2c(s1)Nc1ccccc1N=C2NCCN1CCNCC1` [SW41, 2-methyl-N-(2-(piperazin-1-yl)ethyl)-10H-benzo[b]thieno[2,3-e][1,4]diazepin-4-amine], in assay [9], the “Selectivity ratio (IC50/EC50)” value is on record as 26.8 and the EC50 is 3.9 µM. Moreover, the IC50 in assay [10] was determined as 105 µM.
As to `Cc1cc2c(s1)Nc1ccccc1N=C2NCCCN1CCCC1` [SW42, 2-methyl-N-(3-(pyrrolidin-1-yl)propyl)-10H-benzo[b]thieno[2,3-e][1,4]diazepin-4-amine], in assay [9], the “Selectivity ratio (IC50/EC50)” value stood at 82.6 and the concentration giving a half-maximal response (EC50) turned out to be 0.9 µM. For the same molecule, the IC50 in assay [10] was 76.4 µM.
`Cc1cc2c(s1)Nc1ccccc1N=C2NCCCN(C)C` [SW43, N1,N1-dimethyl-N3-(2-methyl-10H-benzo[b]thieno[2,3-e][1,4]diazepin-4-yl)propane-1,3-diamine]: in [9], the “Selectivity ratio (IC50/EC50)” value came to 82.1 and the 50% effective concentration (EC50) stood at 1.2 µM. Moreover, the IC50 in assay [10] was determined as 102 µM.
Turning to `[H]/N=C(/N)N[C@H]1[C@H](O)[C@@H](O)[C@H](O[C@@H]2O[C@@H](C)[C@](O)(C=O)[C@H]2O[C@@H]2O[C@@H](CO)[C@H](O)[C@@H](O)[C@@H]2NC)[C@@H](N/C(N)=N\[H])[C@@H]1O` [Streptomycin], the minimal inhibitory concentration (MIC) was more than 64 µg/mL in assay [2], more than 64 µg/mL in assay [3] and 32 µg/mL in assay [4] (setting [13]).
As to `CN(C)[C@@H]1C(O)=C(C(N)=O)C(=O)[C@@]2(O)C(O)=C3C(=O)c4c(O)cccc4[C@@](C)(O)[C@H]3C[C@@H]12` [Tetracycline], the minimum inhibitory concentration (MIC) was more than 64 µg/mL in assay [2], more than 64 µg/mL in assay [3] and 8 µg/mL in assay [4] (setting [13]).
Take `CN[C@H](CC(C)C)C(=O)N[C@H]1C(=O)N[C@@H](CC(N)=O)C(=O)N[C@H]2C(=O)N[C@H]3C(=O)N[C@H](C(=O)N[C@H](C(=O)O)c4cc(O)cc(O)c4-c4cc3ccc4O)[C@H](O)c3ccc(c(Cl)c3)Oc3cc2cc(c3O[C@@H]2O[C@H](CO)[C@@H](O)[C@H](O)[C@H]2O[C@H]2C[C@](C)(N)[C@H](O)[C@H](C)O2)Oc2ccc(cc2Cl)[C@H]1O` [Vancomycin]: the minimum inhibitory concentration (MIC) in assay [4] (setting [11]) turned out to be 2050 µg/mL; in assay [4] (setting [12]), 512 µg/mL; in assay [4] (setting [14]), 128 µg/mL.
Take Gentamycin: in assay [2], the “MIC 0911R” value is 2 µg/mL. The “MIC NL08.10” value in assay [3] came out at 2 µg/mL. Also, the “MIC SA10” value in assay [6] amounted to 0.5 µg/mL. For the same molecule, the “MIC ATCC 14028” value in assay [4] (Table 5) and in assay [4] (Table 6) was 2 µg/mL throughout. The “MIC SB10” value in assay [7] was found to be 1 µg/mL.

Values taken from patent publication US11925650B2, “Antibacterial chemical compound, its manufacturing method and its use thereof” (National Taiwan University, priority 2022, dated 2024).
